Measured values as given in ChEMBL document CHEMBL3351760, “Homology modeling and explicit membrane molecular dynamics simulation to delineate the mode of binding of thiazolidinediones into FFAR1 and the mechanism of receptor activation” (Bioorg Med Chem Lett, 2014).

Target: Free fatty acid receptor 1 (Homo sapiens, UniProt O14842)
Experiment: Agonist activity at FFAR1 (unknown origin) assessed as increase in ERK1/2 MAP kinase phosphorylation

Sequence of Free fatty acid receptor 1 (O14842 whole entry): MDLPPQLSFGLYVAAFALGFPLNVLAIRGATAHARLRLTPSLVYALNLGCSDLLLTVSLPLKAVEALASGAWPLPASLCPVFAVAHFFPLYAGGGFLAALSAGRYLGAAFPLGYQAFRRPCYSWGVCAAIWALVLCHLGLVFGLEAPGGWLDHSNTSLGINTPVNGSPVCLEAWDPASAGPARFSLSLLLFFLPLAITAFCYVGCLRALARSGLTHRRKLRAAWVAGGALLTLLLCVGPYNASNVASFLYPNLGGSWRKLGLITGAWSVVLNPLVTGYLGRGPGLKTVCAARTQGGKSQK

Going from `O=C(O)CCc1ccc(NCc2cccc(Oc3ccccc3)c2)cc1` [GW9508] to `CN(CCOc1ccc(CC2SC(=O)NC2=O)cc1)c1ccccn1` (stereo not drawn) [ROSIGLITAZONE], the EC50 rises from 0.316 µM to 11.5 µM (36-fold).

With `CCc1ccc(CCOc2ccc(CC3SC(=O)NC3=O)cc2)nc1` (stereo not drawn) [PIOGLITAZONE] the EC50 was 813 µM.
